Article PMC11093668 (Clinical Infectious Diseases: An Official Publication of …, 2023)
Where two headings read alike, the source gives them in different places. One block for each compound: values may come before it.

How the values were obtained:
[1] = human, in vivo
[2] = atazanavir co-administration; cited from earlier work
HIV [3] = test system: HIV; set-up: method as in ref 26 = [26]; 26 Gonzalez de Requena D , Bonora S , Canta F , et al Atazanavir trough is associated with efficacy and safety: definition of therapeutic range. In: 6th Intenational Workshop on Clinical Pharmacology; details: secondary target; cited from earlier work
clinical = details: human, in vivo, geometric mean (90% CI)
HIV [4] = test system: HIV; set-up: method as in ref 25 = [25]; 25 Fda, Cder . Reyataz (atazanavir sulfate) capsules label. Available at: www.fda.gov/medwatch . Accessed 17 September 2019.; details: primary target minimum concentration; cited from earlier work

AUC24, geometric mean (90% CI) [1]: 9.5 (8.4 - 11) mg·h/L | Clearance/F, geometric mean (90% CI) [1]: 11 (9.34 - 11.9 L/h | T1/2, geometric mean (90% CI) [1]: 5.7 (5.4- 6.1) h | Ctau, geometric mean (90% CI) ([1]; 24 h): 0.068 (0.060- 0.077) mg/L
Structure (SMILES): CC(C)c1nc(CN(C)C(=O)N[C@H](C(=O)N[C@@H](Cc2ccccc2)C[C@H](O)[C@H](Cc2ccccc2)NC(=O)OCc2cncs2)C(C)C)cs1 [Ritonavir, ritonavir]

AUC24 (exposure) higher with dose escalation of ATV/r [1]: 1.6 fold | Ctau higher with dose escalation of ATV/r ([1]; 12 h): 2 folds
Structure (SMILES): C[C@@H]1CCO[C@H]2Cn3cc(C(=O)NCc4ccc(F)cc4F)c(=O)c(O)c3C(=O)N12 [Dolutegravir, dolutegravir]
increase in dolutegravir exposure [2]: 91%

AUC24, geometric mean (90% CI) [1]: 40 (35–46) mg·h/L | Clearance/F, geometric mean (90% CI) [1]: 7.5 (6.6–8.7) L/h | T1/2, geometric mean (90% CI) [1]: 11 (10–12) h | Ctau, geometric mean ratio (90% CI) ([1]; 12 h): 0.98 (0.81–1.2) | Ctau, geometric mean (90% CI) ([1]; 24 h): 0.59 (0.48–0.74) mg/L | Ctau, geometric mean ratio (90% CI) ([1]; 24 h): 0.039 (0.032– 0.048) | lowest Ctau, fold higher than PA-IC90 ([1]; 24 h): 12.7 fold | proportion of Ctau below the limit of quantification (0.03 mg/L) ([1]; 24 h): 65% | Cmax (clinical): 4600 ng/mL
Structure (SMILES): COC(=O)N[C@H](C(=O)N[C@@H](Cc1ccccc1)[C@@H](O)CN(Cc1ccc(-c2ccccn2)cc1)NC(=O)[C@@H](NC(=O)OC)C(C)(C)C)C(C)(C)C [Atazanavir, atazanavir]
minimum effective concentration (MEC) (HIV [3]): 0.15 mg/L | protein-adjusted IC90 (PA-IC90) (HIV [4]): 0.014 µg/mL

Ctau higher with dose escalated ATV/r ([1]; 24 h): 40%
Structure (SMILES): CO[C@H]1/C=C/O[C@@]2(C)Oc3c(C)c(O)c4c(O)c(c(/C=N/N5CCN(C)CC5)c(O)c4c3C2=O)NC(=O)/C(C)=C\C=C\[C@H](C)[C@H](O)[C@@H](C)[C@@H](O)[C@@H](C)[C@H](OC(C)=O)[C@@H]1C [Rifampicin, rifampicin]
